Results as given in patent publication US5716971A, “Pyridine derivatives, their production and use” (Takeda Chemical Industries, Ltd., priority 1993, dated 1998).
Like-named read-outs stand apart in the source and are kept apart here.

Assays:
[1] = tested on: specimen of rat aorta; test: Vasorelaxation activity in a specimen of rat aorta: contraction caused by TEA and BaCl2; conditions: TEA (30-45 mM) and BaCl2 (0.3 mM) contraction, read-out: constriction inhibitory ratio
Experimental: Vasorelaxation activity in a specimen of rat aorta Effects on contraction caused by tetraethylammonium chloride (TEA) and barium chloride (BaCl2)
(§1) Male Wister rats (10 to 13 week old were employed for the experiment. After dehematization, the aorta was excised and a ring specimen (5 mm length) was prepared. The specimen was suspended in a bath filled with oxygenated (95% O2 -5%CO2) Krebs solution (36° C.). The ring specimen was fixed at one end and the other end was connected to a transducer (Nippon Koden) for recording tension to determine the tension. After a stabilization period of one hour, TEA (30-45 mM) and BaCl2 (0.3 mM) were added to the bath to cause vasoconstriction. After the constriction had reached a steady state (after about 15 minutes), a test compound was added to the bath and its relaxation activity was measured.

[2] = tested on: anesthetized dogs; test: Action of increasing coronary blood flow in anesthetized dogs (administration into coronary artery); type: in vivo, dog; conditions: injected into coronary artery, anesthetized Beagle dogs
Experimental: Action of increasing coronary blood flow in anesthetized dogs (Administration into coronary artery) Method: Beagle dogs (10 to 12 kg body weight) were anesthetized with pentobarbital and subjected to thoractomy under artificial respiration. A by-pass fitted with an electromagnetic flowmeter (Nippon Koden) was prepared between the left coronary artery and left carotid artery,and the volume of coronary blood flow was measured. […]
Maximal change rate against the value measured before the administration (% of basal flow) and the duration period [shown in terms of the time (T1/2) in which the activity is reduced to half] are shown in Table 67. As a result, it is apparent that the compounds of this invention show action of increasing coronary blood flow.

[3] = tested on: specimen of rat aorta; test: Vasorelaxation activity in a specimen of rat aorta: contraction caused by KCl; conditions: read-out: constriction inhibitory ratio
Experimental: as §1
Vasorelaxation activity in a specimen of rat aorta Effects on contraction caused by potassium chloride (KCl)
The same experiment was conducted as in Experiment 1, excepting the use of KCl ([…]) instead of TEA and BaCl2

[4] = tested on: Spontaneously hypertensive rats; test: Hypotensive activity in rats (Tail Cuff Method), oral; type: in vivo; conditions: Rattus norvegicus, SHR
Experimental: Hypotensive activity in rats (Tail Cuff Method)
Spontaneously hypertensive rats (SHR, male, 20 to 23 week old) were warmed up to 36° C. The blood pressure at the tail aorta was measured by the tail cuff method. The blood pressure was measured three times, i.e. before oral administration of the test compound, two hours after the administration and five hours after the administration. The test compound was orally administered in the state of a suspension in gum arabic.
Maximal, hypotensive effect against the blood pressure before the administration is shown as % pre. in Table 66. As a result, it is apparent that the compounds of this invention show hypotensive activity.

[5] = after 2 hours, read-out: Maximal hypotensive effect against blood pressure before administration (% pre.), after 2 hours
[6] = after 5 hours, read-out: Maximal hypotensive effect against blood pressure before administration (% pre.), after 5 hours

| SMILES | inhibition at 1 µM [1] | inhibition at 3 µM [1] | duration (T1/2): time in which the activity is reduced to half ([2]; 30 ug/day) | inhibition at 1 µM [3] | inhibition at 3 µM [3] | inhibition in vivo at 10 mg/kg [4, 5] | inhibition in vivo at 10 mg/kg [4, 6] | inhibition at 10 µM ([1]; 10 μM) | inhibition at 10 µM ([3]; 10 μM) | inhibition in vivo at 1 mg/kg [4, 5] | inhibition in vivo at 1 mg/kg [4, 6] | duration (T1/2): time in which the activity is reduced to half ([2]; 10 μg/dog administration) |
| --- | --- | --- | --- | --- | --- | --- | --- | --- | --- | --- | --- | --- |
| CC(C)(C)O/N=C(/c1cc(Br)ccc1O)c1ncccc1O [Compound 6, (Z)-2-(5-bromo-2-hydroxybenzoyl)-3-hydroxypyridine O-t-butyloxime] | 62% | 82% | 1.5 min | 5% | 17% | – | – | – | – | – | – | – |
| CC(C)(C)ON=C(c1cc(Cl)ccc1O)c1ncccc1O [Compound 14] | 71% | 90% | 1.6 min | 2% | 11% | – | – | – | – | – | – | – |
| CC(C)(C)O/N=C(/c1cc(Cl)c(Cl)cc1O)c1ncccc1O [Compound 32, (Z)-2-(4,5-dichloro-2-hydroxybenzoyl)-3-hydroxypyridine O-t-butyloxime] | 87% | 100% | 3.0 min | -2% | 11% | 19% | 18% | – | – | – | – | – |
| CC(C)(C)O/N=C(/c1cc(F)c(F)cc1O)c1ncccc1O [Compound 34, (Z)-2-(4,5-difluoro-2-hydroxybenzoyl)-3-hydroxypyridine O-t-butyloxime] | 54% | 59% | 3.7 min | 4% | 18% | 27% | 10% | – | – | – | – | – |
| CC(C)(C)O/N=C(/c1cc(Cl)c(F)cc1O)c1ncccc1O [Compound 36, (Z)-2-(5-chloro-4-fluoro-2-hydroxybenzoyl)-3-hydroxypyridine O-t-butyloxime] | 81% | 80% | 4.8 min | 0% | 4% | 42% | 30% | – | – | – | – | – |
| CC(C)(C)O/N=C(/c1cc(Br)c(Cl)cc1O)c1ncccc1O [Compound 38, (Z)-2-(5-bromo-4-chloro-2-hydroxybenzoyl)-3-hydroxypyridine O-t-butyloxime] | 92% | 100% | 4.7 min | 0% | 1% | 29% | 13% | – | – | – | – | – |
| CC(C)(C)O/N=C(/c1cc(F)c(Cl)cc1O)c1ncccc1O [Compound 40, (Z)-2-(4-chloro-5-fluoro-2-hydroxybenzoyl)-3-hydroxypyridine O-t-butyloxime] | 85% | 72% | 2.8 min | 0% | 0% | 30% | 11% | – | – | – | – | – |
| COc1cc(O)c(/C(=N/OC(C)(C)C)c2ncccc2O)cc1Br [Compound 43] | – | 63% | 1.7 min | – | 0% | – | – | 75% | 5% | – | – | – |
| CC(C)(C)O/N=C(/c1cc(F)c(Cl)cc1O)c1c(O)ccc[n+]1[O-] [Compound 56, (Z)-2-(4-chloro-5-fluoro-2-hydroxybenzoyl)-3-hydroxypyridine N-oxide O-t-butyloxime] | 100% | – | 27.3 min | – | – | 51% | 42% | – | – | – | – | – |
| CC(C)(C)O/N=C(/c1cc(F)c(F)cc1O)c1c(O)ccc[n+]1[O-] [Compound 59, (Z)-2-(4,5-difluoro-2-hydroxybenzoyl)-3-hydroxypyridine N-oxide O-t-butyloxime] | 6% | 100% | 15.1 min | – | – | 45% | 54% | – | – | 22% | 10% | – |
| Cc1cc(O)c(/C(=N/OC(C)(C)C)c2ncccc2O)cc1Br [Compound 61, (Z)-2-(5-bromo-2-hydroxy-4-methylbenzoyl)-3-hydroxypyridine O-t-butyloxime] | 54% | 100% | 2.0 min | 4% | 7% | – | – | – | – | – | – | – |
| CC(C)(C)O/N=C(/c1cc(Cl)c(Cl)cc1O)c1cccc[n+]1[O-] [Compound 95, (Z)-2-(4,5-dichloro-2-hydroxybenzoyl)pyridine N-oxide O-t-butyloxime] | 59% | 71% | 4.0 min | 3% | 12% | – | – | – | – | – | – | – |
| CC(C)(C)O/N=C(/c1cc(F)c(F)cc1O)c1cccc[n+]1[O-] [Compound 100, (Z)-2-(4,5-difluoro-2-hydroxybenzoyl)pyridine N-oxide O-t-butyloxime] | 52% | 100% | 3.3 min | 4% | 11% | – | – | – | – | – | – | – |
| CC(C)(C)O/N=C(/c1cc(Br)c(C#N)cc1O)c1ncccc1O [Compound 128, (Z)-2-(5-bromo-4-cyano-2-hydroxybenzoyl)-3-hydroxy pyridine O-t-butyloxime] | 100% | – | 6.2 min | – | – | – | – | – | – | – | – | – |
| CC(C)(C)O/N=C(/c1cc(Br)c(C#N)cc1O)c1c(O)ccc[n+]1[O-] [Compound 129, (Z)-2-(5-bromo-4-cyano-2-hydroxybenzoyl)-3-hydroxy pyridine N-oxide O-t-butyloxime] | 100% | – | – | 18% | – | – | – | – | – | – | – | 42.9 min |
| CC(C)(C)O/N=C(/c1cc(C#N)c(Cl)cc1O)c1ncccc1O [Compound 130, (Z)-2-(4-chloro-5-cyano-2-hydroxybenzoyl)-3-hydroxy pyridine O-t-butyloxime] | 100% | – | 4.4 min | – | – | – | – | – | – | – | – | – |
| CC(C)(C)O/N=C(/c1cc(C#N)c(Cl)cc1O)c1c(O)ccc[n+]1[O-] [Compound 132, (Z)-2-(4-chloro-5-cyano-2-hydroxybenzoyl)-3-hydroxy pyridine N-oxide O-t-butyloxime] | 100% | – | 71.8 min | – | – | – | – | – | – | – | – | – |
| CC(C)(C)O/N=C(/c1cc(Cl)c(C#N)cc1O)c1ncccc1O [Compound 174, (Z)-2-(5-chloro-4-cyano-2-hydroxybenzoyl)-3-hydroxy pyridine O-t-butyloxime] | 100% | – | – | – | – | – | – | – | – | – | – | 4.4 min |
| CC(C)(C)O/N=C(/c1cc(Cl)c(C#N)cc1O)c1c(O)ccc[n+]1[O-] [Compound 175, (Z)-2-(5-chloro-4-cyano-2-hydroxybenzoyl)-3-hydroxy pyridine N-oxide O-t-butyloxime] | 100% | – | – | 4% | – | – | – | – | – | – | – | 34.3 min |
| CC(C)(C)O/N=C(/c1cc(F)c(C#N)cc1O)c1ncccc1O [Compound 176, (Z)-2-(4-cyano-5-fluoro-2-hydroxybenzoyl)-3-hydroxyoyridine O-t-butyloxime] | 100% | – | – | – | – | – | – | – | – | – | – | 1.8 min |
| CC(C)(C)O/N=C(/c1cc(F)c(C#N)cc1O)c1c(O)ccc[n+]1[O-] [Compound 177, (Z)-2-(4-cyano-5-fluoro-2-hydroxybenzoyl)-3-hydroxy pyridine N-oxide O-t-butyloxime] | 50% | 100% | – | 0% | 0% | – | – | – | – | – | – | 9.8 min |
